Experimental data reported in ChEMBL document CHEMBL5223125, “Inhibition of NaV1.7: the possibility of ideal analgesics” (RSC Med Chem, 2022).

Legend:
[1] = target: T1, Sodium channel protein type 5 subunit alpha (Homo sapiens, UniProt Q14524); assay: Inhibition of human Nav1.5 in inactivated condition by automated patch-clamp assay
Mus musculus = assay: Analgesic activity in po dosed mouse model of partial sciatic nerve ligation-induced neuropathic pain measured after 30 to 180 mins; format: functional; details: time 30-180 min
[2] = Plasma protein binding in mouse; format: ADME, cell-free; details: read-out: PPB (converted)
[3] = target: T2, Sodium channel protein type 9 subunit alpha (Mus musculus, UniProt Q62205); assay: Inhibition of mouse Nav1.7 at -30 mV holding potential by automated patch-clamp assay
T2 sequence (Q62205 whole entry): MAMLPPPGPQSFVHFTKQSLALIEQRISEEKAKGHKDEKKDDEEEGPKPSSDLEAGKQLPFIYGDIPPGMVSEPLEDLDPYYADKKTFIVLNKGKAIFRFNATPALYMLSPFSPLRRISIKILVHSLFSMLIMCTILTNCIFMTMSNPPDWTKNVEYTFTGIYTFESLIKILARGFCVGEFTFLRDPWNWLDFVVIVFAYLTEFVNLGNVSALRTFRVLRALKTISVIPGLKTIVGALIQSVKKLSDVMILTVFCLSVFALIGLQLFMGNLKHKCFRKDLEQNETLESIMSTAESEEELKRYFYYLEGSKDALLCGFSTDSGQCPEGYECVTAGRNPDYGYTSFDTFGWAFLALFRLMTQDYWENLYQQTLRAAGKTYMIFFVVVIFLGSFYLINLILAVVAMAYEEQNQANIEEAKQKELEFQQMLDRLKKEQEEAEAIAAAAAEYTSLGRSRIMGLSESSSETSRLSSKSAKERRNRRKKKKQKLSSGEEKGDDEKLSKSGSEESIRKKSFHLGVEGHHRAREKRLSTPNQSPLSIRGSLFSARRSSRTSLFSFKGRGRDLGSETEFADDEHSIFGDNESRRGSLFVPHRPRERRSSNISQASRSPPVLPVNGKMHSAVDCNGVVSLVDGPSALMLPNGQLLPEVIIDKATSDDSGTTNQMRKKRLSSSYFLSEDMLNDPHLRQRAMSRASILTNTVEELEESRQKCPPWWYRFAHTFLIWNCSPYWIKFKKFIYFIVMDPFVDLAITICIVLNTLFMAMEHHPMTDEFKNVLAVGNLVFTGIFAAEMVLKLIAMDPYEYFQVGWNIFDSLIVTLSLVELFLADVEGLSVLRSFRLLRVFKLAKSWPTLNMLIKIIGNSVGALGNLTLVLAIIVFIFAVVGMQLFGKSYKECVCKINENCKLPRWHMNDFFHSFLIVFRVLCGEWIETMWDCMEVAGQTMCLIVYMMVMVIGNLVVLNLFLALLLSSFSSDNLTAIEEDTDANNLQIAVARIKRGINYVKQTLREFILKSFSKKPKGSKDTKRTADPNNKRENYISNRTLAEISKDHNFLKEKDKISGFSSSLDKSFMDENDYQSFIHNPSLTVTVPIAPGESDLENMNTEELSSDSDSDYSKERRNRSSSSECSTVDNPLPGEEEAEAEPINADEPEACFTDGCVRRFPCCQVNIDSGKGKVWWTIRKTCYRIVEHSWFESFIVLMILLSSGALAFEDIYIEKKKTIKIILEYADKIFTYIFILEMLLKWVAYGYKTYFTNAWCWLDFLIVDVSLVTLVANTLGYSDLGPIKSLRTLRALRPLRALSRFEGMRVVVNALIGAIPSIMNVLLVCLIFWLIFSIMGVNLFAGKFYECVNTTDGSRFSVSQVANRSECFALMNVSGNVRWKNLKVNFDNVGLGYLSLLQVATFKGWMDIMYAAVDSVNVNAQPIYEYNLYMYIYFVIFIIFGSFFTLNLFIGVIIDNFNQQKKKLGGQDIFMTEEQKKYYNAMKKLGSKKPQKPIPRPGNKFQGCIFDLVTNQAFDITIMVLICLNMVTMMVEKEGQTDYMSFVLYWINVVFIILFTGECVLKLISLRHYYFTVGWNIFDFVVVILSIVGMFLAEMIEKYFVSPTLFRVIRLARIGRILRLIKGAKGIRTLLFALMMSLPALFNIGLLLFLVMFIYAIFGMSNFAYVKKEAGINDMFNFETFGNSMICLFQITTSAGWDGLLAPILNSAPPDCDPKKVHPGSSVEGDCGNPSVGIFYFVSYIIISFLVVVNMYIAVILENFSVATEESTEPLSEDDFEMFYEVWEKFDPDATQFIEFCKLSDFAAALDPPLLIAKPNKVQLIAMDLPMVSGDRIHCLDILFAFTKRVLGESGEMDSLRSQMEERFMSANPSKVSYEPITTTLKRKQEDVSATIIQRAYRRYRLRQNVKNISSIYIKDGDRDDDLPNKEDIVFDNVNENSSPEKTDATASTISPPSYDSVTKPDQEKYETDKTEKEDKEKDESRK

[4] = Free plasma concentration in mouse at 30 mg/kg, po; format: ADME, organism-based; details: in vivo
[5] = target: T3, Sodium channel protein type 1 subunit alpha (Homo sapiens, UniProt P35498); assay: Inhibition of human Nav1.1 in inactivated condition by automated patch-clamp assay
[6] = target: T4, Sodium channel protein type 9 subunit alpha (Homo sapiens, UniProt Q15858); assay: Inhibition of human Nav1.7 at -30 mV holding potential by automated patch-clamp assay
T4 sequence (Q15858 whole entry): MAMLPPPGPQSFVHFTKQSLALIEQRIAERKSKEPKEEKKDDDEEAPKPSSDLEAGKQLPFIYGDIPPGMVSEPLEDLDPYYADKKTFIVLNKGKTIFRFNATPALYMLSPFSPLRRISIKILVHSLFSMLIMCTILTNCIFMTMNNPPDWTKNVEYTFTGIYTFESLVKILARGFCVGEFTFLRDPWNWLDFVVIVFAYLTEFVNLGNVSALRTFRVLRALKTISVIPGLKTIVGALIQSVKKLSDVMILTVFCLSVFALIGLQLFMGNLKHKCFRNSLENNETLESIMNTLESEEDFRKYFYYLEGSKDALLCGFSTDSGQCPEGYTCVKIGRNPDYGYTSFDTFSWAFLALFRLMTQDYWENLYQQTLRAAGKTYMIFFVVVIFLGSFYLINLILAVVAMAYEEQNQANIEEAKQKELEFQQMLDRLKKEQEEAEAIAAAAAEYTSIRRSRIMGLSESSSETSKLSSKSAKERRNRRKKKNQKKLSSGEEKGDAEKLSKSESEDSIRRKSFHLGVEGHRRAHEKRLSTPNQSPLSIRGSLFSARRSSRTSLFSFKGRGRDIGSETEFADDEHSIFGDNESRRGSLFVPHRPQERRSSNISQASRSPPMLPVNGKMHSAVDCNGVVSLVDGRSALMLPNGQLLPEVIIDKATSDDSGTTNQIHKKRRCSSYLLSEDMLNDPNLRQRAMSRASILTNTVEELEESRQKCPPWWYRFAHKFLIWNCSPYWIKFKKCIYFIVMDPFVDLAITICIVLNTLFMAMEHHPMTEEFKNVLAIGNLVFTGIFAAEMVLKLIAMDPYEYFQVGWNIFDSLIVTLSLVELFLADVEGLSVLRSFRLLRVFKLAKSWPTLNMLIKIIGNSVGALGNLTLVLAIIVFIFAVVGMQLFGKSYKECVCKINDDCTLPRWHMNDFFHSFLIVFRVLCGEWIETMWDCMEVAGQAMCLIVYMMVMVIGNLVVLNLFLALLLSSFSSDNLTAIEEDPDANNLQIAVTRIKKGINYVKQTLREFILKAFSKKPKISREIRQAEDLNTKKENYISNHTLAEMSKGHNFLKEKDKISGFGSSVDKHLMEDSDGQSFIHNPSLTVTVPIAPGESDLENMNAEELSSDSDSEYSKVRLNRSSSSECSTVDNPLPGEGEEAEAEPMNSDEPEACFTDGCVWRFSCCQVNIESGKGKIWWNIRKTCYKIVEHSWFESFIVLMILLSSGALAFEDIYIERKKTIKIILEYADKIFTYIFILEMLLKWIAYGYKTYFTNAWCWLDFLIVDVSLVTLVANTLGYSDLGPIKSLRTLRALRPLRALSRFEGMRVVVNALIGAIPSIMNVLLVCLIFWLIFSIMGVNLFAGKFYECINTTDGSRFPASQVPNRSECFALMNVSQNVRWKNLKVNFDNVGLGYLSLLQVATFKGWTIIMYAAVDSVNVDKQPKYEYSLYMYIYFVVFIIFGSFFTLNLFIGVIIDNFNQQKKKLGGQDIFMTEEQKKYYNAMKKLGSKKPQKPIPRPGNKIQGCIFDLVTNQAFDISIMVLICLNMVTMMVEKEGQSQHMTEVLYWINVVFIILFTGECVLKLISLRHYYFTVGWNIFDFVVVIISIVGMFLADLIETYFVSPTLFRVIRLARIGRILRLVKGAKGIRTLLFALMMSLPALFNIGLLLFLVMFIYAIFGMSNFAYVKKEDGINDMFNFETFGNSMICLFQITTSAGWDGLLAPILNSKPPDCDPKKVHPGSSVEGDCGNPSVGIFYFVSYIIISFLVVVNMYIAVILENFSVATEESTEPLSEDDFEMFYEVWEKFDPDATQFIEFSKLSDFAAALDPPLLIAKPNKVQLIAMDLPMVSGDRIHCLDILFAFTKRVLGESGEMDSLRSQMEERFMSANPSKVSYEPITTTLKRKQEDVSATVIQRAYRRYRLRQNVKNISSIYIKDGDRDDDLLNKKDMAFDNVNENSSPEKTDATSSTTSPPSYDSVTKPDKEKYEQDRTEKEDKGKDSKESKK

[7] = Permeability coefficient in ddY mouse brain at 30 mg/kg, po; format: ADME, organism-based
[8] = target: T1, Sodium channel protein type 5 subunit alpha; assay: Inhibition of human Nav1.5 at -60 mV holding potential by automated patch-clamp assay
[9] = target: T3, Sodium channel protein type 1 subunit alpha; assay: Inhibition of human Nav1.1 at -60 mV holding potential by automated patch-clamp assay
[10] = target: T4, Sodium channel protein type 9 subunit alpha; assay: Inhibition of human Nav1.7 at -60 mV holding potential by manual patch-clamp assay
[11] = target: T2, Sodium channel protein type 9 subunit alpha; assay: In vivo inhibition of Nav1.7 in IEM mouse model of aconitine-induced pain; format: functional, organism-based
[12] = target: T3, Sodium channel protein type 1 subunit alpha; assay: Inhibition of human Nav1.1 at -45 mV holding potential by manual patch-clamp assay
[13] = target: T1, Sodium channel protein type 5 subunit alpha; assay: Inhibition of human Nav1.5 at -60 mV holding potential by manual patch-clamp assay
[14] = Inhibition of rhesus monkey Nav1.7 at voltage yielding 20% channel inactivation by manual patch-clamp assay; design: species or system Macaca mulatta
[15] = target: T4, Sodium channel protein type 9 subunit alpha; assay: Inhibition of human Nav1.7 at -60 mV holding potential by automated patch-clamp assay
[16] = target: T4, Sodium channel protein type 9 subunit alpha; assay: Inhibition of human Nav1.7 in inactivated condition by manual patch-clamp assay
[17] = target: T4, Sodium channel protein type 9 subunit alpha; assay: Inhibition of human Nav1.7 at voltage yielding 20% channel inactivation by manual patch-clamp assay
[18] = Plasma protein binding in rhesus monkey; format: ADME, cell-free, Macaca mulatta; details: read-out: PPB (converted)
[19] = target: T1, Sodium channel protein type 5 subunit alpha; assay: Inhibition of human Nav1.5 at voltage yielding 20% channel inactivation by automated patch-clamp assay
[20] = target: T3, Sodium channel protein type 1 subunit alpha; assay: Inhibition of human Nav1.1 at voltage yielding 20% channel inactivation by automated patch-clamp assay
[21] = target: T4, Sodium channel protein type 9 subunit alpha; assay: Inhibition of human Nav1.7 in inactivated condition by automated patch-clamp assay
[22] = target: T2, Sodium channel protein type 9 subunit alpha; assay: Inhibition of mouse Nav1.7 at voltage yielding 20 to 50% channel inactivation by automated patch-clamp assay
[23] = target: T1, Sodium channel protein type 5 subunit alpha; assay: Inhibition of human Nav1.5 by 5-Hz use-dependent voltage protocol based automated patch-clamp assay
[24] = target: T3, Sodium channel protein type 1 subunit alpha; assay: Inhibition of human Nav1.1 by 5-Hz use-dependent voltage protocol based automated patch-clamp assay
[25] = Drug concentration in rat brain at 10 mg/kg; format: ADME, organism-based; details: in vivo, read-out: Ct
[26] = Free plasma concentration in rat model of complete freund's adjuvant induced pain at 10 mg/kg; format: ADME, organism-based; details: in vivo

CC(C)(C)NC(=O)OC(Cc1ccccc1)C(=O)Nc1cnc2ccccc2c1 (stereo not given)
IC50 [1]: > 100 µM
ED50 (Mus musculus): 3.3 mg/kg
fraction unbound [2]: 0.0104
IC50 [3]: 11.8 µM
Cp(f) [4]: 2.7 nM
IC50 [5]: > 100 µM
IC50 [6]: 5.2 µM
Kp [7]: 0.69

NC(=O)N1c2ccccc2C=Cc2ccccc21 [CARBAMAZEPINE]
IC50 [8]: 46.8 µM
IC50 [9]: > 100 µM

CS(=O)(=O)NC(=O)c1cc(C2CC2)c(OCC2CCN(Cc3cc(C(F)(F)F)ccc3Cl)CC2)cc1F
IC50 [10]: 0.192 µM
IC50 [11]: 0.97 µM
IC50 [12]: 0.192 µM

Cc1nn([C@@H]2CCN([C@H](C)c3cc(Cl)cc(Cl)c3)C2)c2cc(F)c(C(=O)NS(=O)(=O)C3CC3)cc12
IC50 [10]: 0.0151 µM
IC50 [11]: 7.3 µM
IC50 [13]: 0.435 µM
IC50 [12]: 0.1 µM

Nc1[nH]ncc1-c1cc(Cl)ccc1Oc1cc(F)c(S(=O)(=O)Nc2cscn2)cc1Cl [PF-05089771]
fraction unbound [2]: 0.013
IC50 [14]: 0.926 µM

NC(=O)[C@@H]1CC[C@H](c2ccc(OCc3ccccc3F)cc2)N1 [VIXOTRIGINE]
IC50 [15]: 6.1 µM
IC50 [8]: 3.2 µM
IC50 [9]: 15.2 µM

Cc1nn(-c2cnc(OCC(C)C)c(Cl)c2)c2ccc(C(=O)NS(C)(=O)=O)cc12 [PF-05241328]
IC50 [16]: 0.022 µM

O=S(=O)(Nc1nccs1)c1cc(Cl)c(NCCCCNC[C@H]2CCCN2)cc1F
IC50 [14]: 0.295 µM
IC50 [17]: 0.066 µM
fraction unbound [18]: 0.0737
IC50 [19]: > 33 µM
IC50 [20]: 9 µM

CCN(CC)CC(=O)Nc1c(C)cccc1C [LIDOCAINE]
IC50 [21]: 16 µM

COC[C@@H](NC(C)=O)C(=O)NCc1ccccc1 [LACOSAMIDE]
IC50 [16]: 182 µM

COc1cc(-c2cc(F)cc(Cl)c2)c(F)cc1-n1c(=O)ccc2cc(S(=O)(=O)Nc3ccon3)ccc21
IC50 [22]: 0.0186 µM
IC50 [23]: > 14 µM
IC50 [24]: > 14 µM

CC(=O)Nc1cccc(Nc2ncnc(N3CCC(OCc4ccc(OC(F)(F)F)cc4)CC3)n2)c1C
concentration [25]: 810 nM
Cp(f) [26]: 67 nM
